Laboratory results: publication PMC9256669, “Monomethyl auristatin antibody and peptide drug conjugates for trimodal cancer chemo-radio-immunotherapy” (Nature Communications, 2022)
Where “and” joins values, the source holds several entries; their conditions need not be identical. Equal values may be shown once. Non-standard residues stand in square brackets, D forms with d. Residues, ends and D or L forms follow the SMILES beside them. *: point of attachment. Dolaproine = CO[C@@H]([C@@H]1CCCN1)[C@@H](C)C(=O)O; Dil = CC[C@H](C)[C@H](NC)[C@@H](CC(=O)O)OC; X1 = C[C@@H](N*)[C@@H](O)c1ccccc1; NMeV = CN[C@H](C(=O)O)C(C)C

Tests used:
CAL27 = assay: Cytotoxicity, Alamar Blue assay; type: cell-based, human; settings: 72 h drug exposure, one value per biological replicate, read-out: IC50 values
Method: (§1) Murine colorectal (MC38 (ENH204-FP)) cancer cell lines were obtained from Kerafast. Murine head and neck MOC1 and MOC2 were generously provided by Dr. R. Uppaluri. CAL27 PIK3CA H1047R expressing cells and 4MOSC1 cells were generated in Dr. Gutkind’s laboratory and previously characterized[42],[55]. […] MC38 cells were cultured in DMEM supplemented with 10% FBS, 1 mM sodium pyruvate (Gibco), 1% non-essential amino acids (Gibco), and 10 mM HEPES (Gibco). MOC1 and MOC2 cells were cultured in IMDM (Lonza)/F-12K nutrient mixture at a 2:1 mixture with 5% FBS, 5 ng/ml EGF (EMD Millipore), 400 ng/ml hydrocortisone (Sigma), and […] insulin (Sigma). On receipt, each cell line was expanded, cryopreserved as low passage stocks, and routinely tested for mycoplasma. Cisplatin (Enzo Biosciences), paclitaxel (Sigma), and MMAE (Concortis) were reconstituted in DMSO. Clinical-grade CDX3379 was provided by Celldex. Clinical grade cetuximab (Erbitux, Lilly Medical) was obtained from UCSD Moores Cancer Center Pharmacy.
(§2) Cells were plated in 96-well plates and exposed to a drug concentration range for 72 h. Alamar Blue was added to the cells and allowed to incubate for 2–4 h at 37 °C. Plates were analyzed using a plate reader with fluorescence measured at 560 nm. Fractional survival was normalized to untreated control cell fluorescent values. Drug IC50 was calculated using Prism software (GraphPad, La Jolla, CA). Cell viability, cytotoxicity and apoptosis were also measured by ApoTox-Glo Triplex Assay (Promega).

Detroit 562 = assay: Cytotoxicity, Alamar Blue assay; type: cell-based, human; settings: Detroit 562, 72 h drug exposure, one value per biological replicate, read-out: IC50 values
Method: as §1, §2

4MOSC1 = assay: Cytotoxicity, Alamar Blue assay; type: cell-based, murine; settings: 4MOSC1, 72 h drug exposure, one value per biological replicate, read-out: IC50 values
Method: as §1, §2

B16 = assay: Cytotoxicity, Alamar Blue assay; type: cell-based, murine; settings: B16, 72 h drug exposure, one value per biological replicate, read-out: IC50 values
Method: as §1, §2

MC38 = assay: Cytotoxicity, Alamar Blue assay; type: cell-based, murine; settings: MC38, 72 h drug exposure, one value per biological replicate, read-out: IC50 values
Method: as §1, §2

LL/2 cells [1] = assay: Cell cycle analysis; type: cell-based, murine
Method: Cells were MMAE treated for 24 h, fixed in 70% ethanol, stained with FxCyclePI/RNase solution (Life Technologies), and then analyzed by FACS using FlowJo software. […]
0.9 b) Cell cycle analysis […]
Source data are provided in Source Data file.

B16 cells = assay: Clonogenic survival with MMAE and 2 Gy (SF2); type: cell-based, murine; parameters: key to SF2: fraction surviving 2 Gy relative to non-irradiated cells; settings: for SF2: Figure 3d, six single replicates
Method: (§3) Cells were treated with MMAE for 24 h and then irradiated with 2 Gy. […] Following IR, cells were counted, re-plated at varying cell numbers in drug free media. 10–14 days after initial seeding formed colonies were methanol fixed, stained with crystal violet, and counted. Surviving fraction at 2 Gy (SF2) was calculated as the fraction of cells surviving 2 Gy compared to non-irradiated cells.

LL/2 cells [2] = assay: Clonogenic survival with MMAE and 2 Gy (SF2); type: cell-based, murine; parameters: key: fraction surviving 2 Gy relative to non-irradiated cells
Method: as §3, with “cells. […]” for “cells.”

4MOSC1 tumors = assay: Orthotopic syngeneic tumor ACPP therapy, tumor volumes; type: in vivo, C57BL/6 mice; settings: orthotopic 4MOSC1 tumors, conjugate monotherapy
Source text: Orthotopic tongue xenograft tumors were established in 6-week-old NOD SCID mice by injecting 150,000 CAL27 parental (WT) or PIK3CA H1047R-expressing cells. […] On the last day of tumor xenograft measurements, mice were euthanized, tongues resected, imaged, and fixed. […] IR was delivered as 2 parallel opposed fields.

B16 tumors = assay: NanoString nCounter PanCancer Mouse Immune Profiling of tumors; type: in vivo, C57BL/6 mice; settings: ACPP-MMAE alone vs vehicle
Method: RNA was isolated from cells or tumor tissues and comprehensive immune profiling was analyzed using the NanoString PanCancer IO 360 Panel and NanoString nCounter PanCancer Mouse Immune Profiling gene expression platforms. Gene set analysis with calculated global significance scores and directed significance scores were calculated for treated cells. The Advanced Analysis module of the nSolver software was used to analyze genes associated with listed immune cells in tumors and given a Z-score (n = 3 mice per group). Expression levels of GZMB were analyzed using real-time quantitative PCR. Reverse transcription was performed with the iScript cDNA synthesis kit (Biorad), using aliquots of total RNA extracted with RNeasy Plus Mini Kit (Qiagen). Gene-specific primers were GZMB-F […] and GZMB-R […]. Real-time PCR reactions were performed using the CFX Connect Real-Time PCR System (Biorad) and the amplifications were done using the iTaq Universal SYBR Green Supermix (Biorad). qPCR data were analyzed using the Bio-Rad CFX Maestro software.
Supplementary Data 1: Complete NanoString expression data of Figure 1b. Untreated control (n=2) and 5 nM MMAE treated (n=3) B16 cells were harvested at 72 hrs. RNA was collected and analyzed using NanoString PanCancer IO 360 Panel. […]
were harvested. RNA was collected and analyzed using NanoString nCounter PanCancer Mouse Immune Profiling panel. […]

CC[C@H](C)[C@@H]([C@@H](CC(=O)N1CCC[C@H]1[C@H](OC)[C@@H](C)C(=O)N[C@H](C)[C@@H](O)c1ccccc1)OC)N(C)C(=O)[C@@H](NC(=O)[C@@H](NC)C(C)C)C(C)C [MMAE, monomethyl auristatin E] (H-[NMeV]V[Dil][Dolaproine]-X1)
IC50 (CAL27): 0.235 nM and 0.239 nM (2×) and 0.237 nM and 0.177 nM and 0.185 nM
IC50 (Detroit 562): 0.253 nM and 0.25 nM and 0.189 nM and 0.195 nM
IC50 (4MOSC1): 1.82 nM and 1.52 nM
IC50 (B16): 1.77 nM and 2.33 nM and 1.94 nM and 3.12 nM
IC50 (MC38): 14.4 nM and 14.9 nM and 30.4 nM
G2/M fraction (LL/2 cells [1]; MMAE 1 nM, replicate 1): 0.15
G2/M fraction (LL/2 cells [1]; MMAE 1 nM, replicate 2): 0.12
G2/M fraction (LL/2 cells [1]; MMAE 2 nM, replicate 1): 0.13
G2/M fraction (LL/2 cells [1]; MMAE 2 nM, replicate 2): 0.14
G2/M fraction (LL/2 cells [1]; MMAE 5 nM, replicate 1): 0.21
G2/M fraction (LL/2 cells [1]; MMAE 5 nM, replicate 2): 0.23
G2/M fraction (LL/2 cells [1]; MMAE 10 nM, replicate 1): 0.63
G2/M fraction (LL/2 cells [1]; MMAE 10 nM, replicate 2): 0.53
SF2 (B16 cells; MMAE 1 nM with 2 Gy): 0.93 and 0.7 and 0.72 and 0.83 and 0.98
SF2 (B16 cells; MMAE 2 nM with 2 Gy): 0.57 and 0.61 and 0.48 and 0.63 and 0.74
SF2 (B16 cells; MMAE 3 nM with 2 Gy): 0.68 and 0.71 and 0.65 and 0.5 and 0.56
radiosensitization, clonogenic cell death (B16 cells; murine tumor cells, single nanomolar doses of MMAE, 2 Gy): sensitized murine tumor cells to IR-mediated clonogenic cell death
SF2 (LL/2 cells [2]; MMAE 1 nM with 2 Gy, replicate 1): 0.48
SF2 (LL/2 cells [2]; MMAE 1 nM with 2 Gy, replicate 2): 0.48
SF2 (LL/2 cells [2]; MMAE 1 nM with 2 Gy, replicate 3): 0.66
SF2 (LL/2 cells [2]; MMAE 1 nM with 2 Gy, replicate 4): 0.44
SF2 (LL/2 cells [2]; MMAE 1 nM with 2 Gy, replicate 5): 0.62
SF2 (LL/2 cells [2]; MMAE 1 nM with 2 Gy, replicate 6): 0.64
SF2 (LL/2 cells [2]; MMAE 2 nM with 2 Gy, replicate 1): 0.46
SF2 (LL/2 cells [2]; MMAE 2 nM with 2 Gy, replicate 2): 0.53
SF2 (LL/2 cells [2]; MMAE 2 nM with 2 Gy, replicate 3): 0.53
SF2 (LL/2 cells [2]; MMAE 2 nM with 2 Gy, replicate 4): 0.41
SF2 (LL/2 cells [2]; MMAE 2 nM with 2 Gy, replicate 5): 0.43
SF2 (LL/2 cells [2]; MMAE 2 nM with 2 Gy, replicate 6): 0.43
SF2 (LL/2 cells [2]; MMAE 3 nM with 2 Gy, replicate 1): 0.29
SF2 (LL/2 cells [2]; MMAE 3 nM with 2 Gy, replicate 2): 0.45
SF2 (LL/2 cells [2]; MMAE 3 nM with 2 Gy, replicate 3): 0.38
SF2 (LL/2 cells [2]; MMAE 3 nM with 2 Gy, replicate 4): 0.45
SF2 (LL/2 cells [2]; MMAE 3 nM with 2 Gy, replicate 5): 0.26
SF2 (LL/2 cells [2]; MMAE 3 nM with 2 Gy, replicate 6): 0.38

cyclo(RGD)fc-MC-HN-peg8-e9-oPLGC(Me)AG-r9-c-(MC-VC-PABC-MMAE)-CONH2 [ACPP-MMAE]
tumor growth (4MOSC1 tumors): modest tumor growth delay
tumor infiltration of immune cell types (NanoString) (B16 tumors): minimal effects
